From patent publication US9670212B2, “Inhibitors of PI3K-delta and methods of their use and manufacture” (Exelixis, Inc., priority 2010, dated 2017)

Biological target: PI3K delta (Homo sapiens (Human), UniProt O00329)
Experiment: Luciferase-coupled chemiluminescence kinase assay (KinaseGlo, ATP consumption)
Format: biochemical
Method: Kinase activity and compound inhibition were investigated using one or more of the assay formats described below. The ATP concentrations used in the various assays were approximately equal to or less than the KM for each of the respective kinases. Dose-response experiments were performed using an intra-plate dilution scheme with 10 different inhibitor concentrations in a 384-well microtiter plate. […] Typically N should approximate unity. Curve fitting was performed using XLFit or ActivityBase. Luciferase-Coupled Chemiluminescence Assay Protocol
Kinase activity is measured as the percent of ATP consumed following the kinase reaction using luciferase-luciferin-coupled chemiluminescence. […] Kinase reactions were initiated by combining test compounds, kinase, and ATP in a 20 μL volume (6 μL volume for 1536-well plate). The reaction mixture was incubated at ambient temperature for 2 h. Following the kinase reaction, a 20 μL (or 3 μL for 1536-well plate) aliquot of KinaseGlo (Promega) was added and the chemiluminescence signal measured using an EnVision plate reader (Perkin Elmer).

Chain of PI3K delta (O00329 whole entry): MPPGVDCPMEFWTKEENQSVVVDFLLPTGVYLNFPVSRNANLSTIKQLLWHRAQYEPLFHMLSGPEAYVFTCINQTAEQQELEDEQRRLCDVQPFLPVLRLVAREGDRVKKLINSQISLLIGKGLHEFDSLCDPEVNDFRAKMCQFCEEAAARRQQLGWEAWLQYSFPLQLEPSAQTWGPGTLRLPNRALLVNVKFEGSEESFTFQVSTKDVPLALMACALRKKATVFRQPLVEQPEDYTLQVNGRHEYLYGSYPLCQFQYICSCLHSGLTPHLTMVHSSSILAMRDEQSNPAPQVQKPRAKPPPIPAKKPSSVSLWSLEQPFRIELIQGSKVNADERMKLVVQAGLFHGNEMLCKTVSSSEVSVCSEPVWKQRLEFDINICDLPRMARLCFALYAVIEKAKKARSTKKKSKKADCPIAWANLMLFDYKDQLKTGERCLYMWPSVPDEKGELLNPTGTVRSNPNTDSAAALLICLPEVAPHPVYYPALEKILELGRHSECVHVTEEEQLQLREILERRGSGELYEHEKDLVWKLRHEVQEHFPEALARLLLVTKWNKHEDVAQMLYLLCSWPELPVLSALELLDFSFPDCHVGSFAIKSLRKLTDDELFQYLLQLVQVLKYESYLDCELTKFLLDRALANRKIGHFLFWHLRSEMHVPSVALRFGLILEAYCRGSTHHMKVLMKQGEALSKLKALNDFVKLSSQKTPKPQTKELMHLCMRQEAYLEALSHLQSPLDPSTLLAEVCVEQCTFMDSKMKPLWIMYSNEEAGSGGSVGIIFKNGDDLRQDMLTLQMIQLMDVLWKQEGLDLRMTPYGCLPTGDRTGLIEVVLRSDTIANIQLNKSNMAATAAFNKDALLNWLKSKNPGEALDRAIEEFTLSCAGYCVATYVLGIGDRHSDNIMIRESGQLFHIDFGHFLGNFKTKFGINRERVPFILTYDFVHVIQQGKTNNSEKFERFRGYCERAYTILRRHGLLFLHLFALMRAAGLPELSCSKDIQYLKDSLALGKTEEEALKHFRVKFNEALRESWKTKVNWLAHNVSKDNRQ
Chain of PI3K delta (P27986 whole entry partner): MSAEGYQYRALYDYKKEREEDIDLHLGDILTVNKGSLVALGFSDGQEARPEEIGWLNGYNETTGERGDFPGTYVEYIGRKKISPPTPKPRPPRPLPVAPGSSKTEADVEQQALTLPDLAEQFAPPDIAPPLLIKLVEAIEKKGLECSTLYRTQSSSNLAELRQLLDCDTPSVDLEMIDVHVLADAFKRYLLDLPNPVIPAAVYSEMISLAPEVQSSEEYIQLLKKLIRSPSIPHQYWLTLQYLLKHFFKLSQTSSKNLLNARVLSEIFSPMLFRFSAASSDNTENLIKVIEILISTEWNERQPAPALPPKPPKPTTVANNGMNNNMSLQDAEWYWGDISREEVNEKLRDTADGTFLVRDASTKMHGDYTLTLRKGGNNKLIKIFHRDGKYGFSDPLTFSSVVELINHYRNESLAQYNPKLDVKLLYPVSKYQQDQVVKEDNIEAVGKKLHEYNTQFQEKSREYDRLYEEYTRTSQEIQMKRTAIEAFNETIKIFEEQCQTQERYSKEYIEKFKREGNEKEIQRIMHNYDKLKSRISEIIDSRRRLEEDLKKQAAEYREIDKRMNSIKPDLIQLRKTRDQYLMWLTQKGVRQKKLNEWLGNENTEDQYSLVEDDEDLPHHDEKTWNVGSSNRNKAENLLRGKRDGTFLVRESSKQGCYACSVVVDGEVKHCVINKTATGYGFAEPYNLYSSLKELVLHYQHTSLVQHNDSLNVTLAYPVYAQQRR

First: Cc1cccc2cc(CNC(=O)c3nccnc3N)c(N(C)CCN(C)C(=O)c3ccncc3)nc12 [Compound 79, 3-amino-N-{[8-methyl-2-(methyl{2-[methyl(pyridin-4-ylcarbonyl)amino]ethyl}amino)quinolin-3-yl]methyl}pyrazine-2-carboxamide]
Second: Cc1cccc2cc(CNC(=O)c3nccnc3N)c(N(C)CCN(C)C(=O)c3cccnc3)nc12 [Compound 80, 3-amino-N-{[8-methyl-2-(methyl{2-[methyl(pyridin-3-ylcarbonyl)amino]ethyl}amino)quinolin-3-yl]methyl}pyrazine-2-carboxamide]
The IC50 of the first is lower: 50 to 250 nM for the first, 250 to 500 nM for the second.

First: Cc1cccc2cc(CNC(=O)c3nccnc3N)c(N(C)CCN(C)C(=O)c3ccccn3)nc12 [Compound 81, 3-amino-N-{[8-methyl-2-(methyl{2-[methyl(pyridin-2-ylcarbonyl)amino]ethyl}amino)quinolin-3-yl]methyl}pyrazine-2-carboxamide]
Second: Cc1cccc2cc(CNC(=O)c3nccnc3N)c(N(C)CCc3ccccn3)nc12 [Compound 88, 3-amino-N-({8-methyl-2-[methyl(2-pyridin-2-ylethyl)amino]quinolin-3-yl}methyl)pyrazine-2-carboxamide]
The IC50 of the first is lower: 250 to 500 nM for the first, 500 to 1500 nM for the second. The first is the more potent here.

First: Cc1cccc2cc(CNC(=O)c3nccnc3N)c(N(C)CCN(C)Cc3cccnc3)nc12 [Compound 83, 3-amino-N-{[8-methyl-2-(methyl{2-[methyl(pyridin-3-ylmethyl)amino]ethyl}amino)quinolin-3-yl]methyl}pyrazine-2-carboxamide]
Second: Cc1cccc2cc(CNC(=O)c3nccnc3N)c(N(C)Cc3cccnc3)nc12 [Compound 87, 3-amino-N-({8-methyl-2-[methyl(pyridin-3-ylmethyl)amino]quinolin-3-yl}methyl)pyrazine-2-carboxamide]
The IC50 of the first is lower: under 50 nM for the first, 50 to 250 nM for the second.

First: Cc1cccc2cc(CNC(=O)c3nccnc3N)c(N(C)CCN(C)CC#N)nc12 [Compound 84, 3-amino-N-({2-[{2-[(cyanomethyl)(methyl)amino]ethyl}(methyl)amino]-8-methylquinolin-3-yl}methyl)pyrazine-2-carboxamide]
Second: Cc1cccc2cc(CNC(=O)c3nccnc3N)c(N(C)CCN(C)CC(=O)N(C)C)nc12 [Compound 89, 3-amino-N-({2-[(2-{[2-(dimethylamino)-2-oxoethyl](methyl)amino}ethyl)(methyl)amino]-8-methylquinolin-3-yl}methyl)pyrazine-2-carboxamide]
The IC50 of the first is higher: 50 to 250 nM for the first, under 50 nM for the second. The second is the more potent here.

`Cc1cccc2cc(CNC(=O)c3nccnc3N)c(N(C)CCN(C)C(=O)Cn3ccnc3)nc12` [Compound 85, 3-amino-N-({2-[{2-[(1H-imidazol-1-ylacetyl)(methyl)amino]ethyl}(methyl)amino]-8-methylquinolin-3-yl}methyl)pyrazine-2-carboxamide] and `Cc1cccc2cc(CNC(=O)c3nccnc3N)c(N(C)CCN(C)C(=O)Cn3ccnn3)nc12` [Compound 100, 3-amino-N-{[8-methyl-2-(methyl{2-[methyl(1H-1,2,3-triazol-1-ylacetyl)amino]ethyl}amino)quinolin-3-yl]methyl}pyrazine-2-carboxamide] cannot be ordered by IC50: under 50 nM for the first, under 50 nM for the second.

Compared with `Cc1cccc2cc(CNC(=O)c3nccnc3N)c(N(C)CCN(C)C(=O)Cn3ccnc3C)nc12` [Compound 86, 3-amino-N-({8-methyl-2-[methyl(2-{methyl[(2-methyl-1H-imidazol-1-yl)acetyl]amino}ethyl)amino]quinolin-3-yl}methyl)pyrazine-2-carboxamide], `Cc1cccc2cc(CNC(=O)c3nccnc3N)c(N(C)CCN(C)C(=O)Cn3nccn3)nc12` [Compound 94, 3-amino-N-{[8-methyl-2-(methyl{2-[methyl(2H-1,2,3-triazol-2-ylacetyl)amino]ethyl}amino)quinolin-3-yl]methyl}pyrazine-2-carboxamide] is higher in IC50: under 50 nM for the first, 50 to 250 nM for the second. The first is the more potent here.

First: Cc1cccc2cc(CNC(=O)c3nccnc3N)c(N(C)CCN(C)c3cnccn3)nc12 [Compound 90, 3-amino-N-{[8-methyl-2-(methyl{2-[methyl(pyrazin-2-yl)amino]ethyl}amino)quinolin-3-yl]methyl}pyrazine-2-carboxamide]
Second: Cc1cccc2cc(CNC(=O)c3nccnc3N)c(N(C)CCN(C)S(C)(=O)=O)nc12 [Compound 101, 3-amino-N-{[8-methyl-2-(methyl{2-[methyl(methylsulfonyl)amino]ethyl}amino)quinolin-3-yl]methyl}pyrazine-2-carboxamide]
The IC50 of the first is higher: 500 to 1500 nM for the first, 50 to 250 nM for the second. The second is the more potent here.

`Nc1nccnc1C(=O)NCc1nc2ccccc2cc1-c1cscn1` [Compound 91, 3-amino-N-{[3-(1,3-thiazol-4-yl)quinolin-2-yl]methyl}pyrazine-2-carboxamide] and `Nc1nccnc1C(=O)NCc1nc2ccccc2cc1Br` [Compound 93, 3-amino-N-[(3-bromoquinolin-2-yl)methyl]pyrazine-2-carboxamide] fall in the same range of IC50: 500 to 1500 nM for the first, 500 to 1500 nM for the second.

Compared with `CN(C)Cc1ccccc1-c1cc2ccccc2nc1CNC(=O)c1nccnc1N` [Compound 92, 3-amino-N-[(3-{2-[(dimethylamino)methyl]phenyl}quinolin-2-yl)methyl]pyrazine-2-carboxamide], `Cc1ccccc1-c1cc2ccccc2nc1CNC(=O)c1ncc(N2CCOCC2)nc1N` [Compound 105, 3-amino-N-{[3-(2-methylphenyl)quinolin-2-yl]methyl}-5-morpholin-4-ylpyrazine-2-carboxamide] is higher in IC50: 50 to 250 nM for the first, 500 to 1500 nM for the second. The first is the more potent here.

`Cc1cccc2cc(CNC(=O)c3nccnc3N)c(NCc3cccnc3)nc12` [Compound 95, 3-amino-N-({8-methyl-2-[(pyridin-3-ylmethyl)amino]quinolin-3-yl}methyl)pyrazine-2-carboxamide] and `Cc1cccc2cc(CNC(=O)c3nccnc3N)c(NCCc3cccnc3)nc12` [Compound 97, 3-amino-N-({8-methyl-2-[(2-pyridin-3-ylethyl)amino]quinolin-3-yl}methyl)pyrazine-2-carboxamide] fall in the same range of IC50: 500 to 1500 nM for the first, 500 to 1500 nM for the second.

`Cc1cccc2cc(CNC(=O)c3nccnc3N)c(NCCc3ccccn3)nc12` [Compound 96, 3-amino-N-({8-methyl-2-[(2-pyridin-2-ylethyl)amino]quinolin-3-yl}methyl)pyrazine-2-carboxamide] and `COCCN(C)c1nc2c(C)cccc2cc1CNC(=O)c1nccnc1N` [Compound 104, 3-amino-N-[(8-methyl-2-{methyl[2-(methyloxy)ethyl]amino}quinolin-3-yl)methyl]pyrazine-2-carboxamide] fall in the same range of IC50: 500 to 1500 nM for the first, 500 to 1500 nM for the second.

`Cc1cccc2cc(CNC(=O)c3nccnc3N)c(N(C)C3CCN(C)C3)nc12` (stereo not shown) [Compound 98, 3-amino-N-({8-methyl-2-[methyl(1-methylpyrrolidin-3-yl)amino]quinolin-3-yl}methyl)pyrazine-2-carboxamide] and `Cc1cccc2cc(CNC(=O)c3nccnc3N)c(N(C)C3CCN(C)CC3)nc12` [Compound 99, 3-amino-N-({8-methyl-2-[methyl(1-methylpiperidin-4-yl)amino]quinolin-3-yl}methyl)pyrazine-2-carboxamide] fall in the same range of IC50: 50 to 250 nM for the first, 50 to 250 nM for the second.

`Cc1cccc2cc(CNC(=O)c3nccnc3N)c(N(C)CCN(C)C(=O)[C@H]3CCCN3)nc12` [Compound 102, 3-amino-N-{[8-methyl-2-(methyl{2-[methyl(D-prolyl)amino]ethyl}amino)quinolin-3-yl]methyl}pyrazine-2-carboxamide] gave an IC50 of 50 to 250 nM.
